In ChEMBL document CHEMBL1129873, “PYRIDONE-BASED PEPTIDOMIMETIC INHIBITORS OF INTERLEUKIN-1-CONVERTING ENZYME (ICE)” (Bioorg Med Chem Lett, 1997):

biological target: T1, Caspase-1 (Homo sapiens, UniProt P29466); assay: Reversible inhibition of recombinant human IL-1 beta converting enzyme.
T1 sequence (P29466 whole entry): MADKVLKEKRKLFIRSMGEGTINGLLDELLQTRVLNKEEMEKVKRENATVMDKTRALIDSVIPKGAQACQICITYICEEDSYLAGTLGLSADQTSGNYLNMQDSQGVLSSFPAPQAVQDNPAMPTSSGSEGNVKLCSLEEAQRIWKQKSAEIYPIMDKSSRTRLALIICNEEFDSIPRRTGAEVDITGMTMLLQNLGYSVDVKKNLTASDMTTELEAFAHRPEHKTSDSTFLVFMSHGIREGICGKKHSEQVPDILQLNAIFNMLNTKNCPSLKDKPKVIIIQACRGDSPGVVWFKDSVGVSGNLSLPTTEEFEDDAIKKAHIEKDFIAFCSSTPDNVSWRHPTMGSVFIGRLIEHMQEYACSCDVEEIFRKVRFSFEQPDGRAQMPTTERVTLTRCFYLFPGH

Row | SMILES | Ki [nM]
1 | Cc1ccc(NC(=O)OCc2ccccc2)c(=O)n1CC(=O)N[C@@H](CC(=O)O)C(=O)COc1ccccc1 | 590
2 | C=CCC(C(=O)N[C@@H](CC(=O)O)C(=O)COc1ccccc1)n1cccc(NC(=O)c2ccc3ccccc3c2)c1=O (some centres not stated) | 1.5
3 | CCC(C(=O)N[C@@H](CC(=O)O)C(=O)COc1ccccc1)n1cccc(NC(=O)c2ccc3ccccc3c2)c1=O (some centres not stated) | 1.4
4 | CC(C)[C@H](NC(=O)c1ccc2ccccc2c1)C(=O)N[C@@H](C)C(=O)NC(CC(=O)O)C(=O)COc1ccccc1 (some centres not stated) | 0.15
5 | O=C(O)C[C@H](NC(=O)C(c1ccccc1)n1cccc(NC(=O)c2ccc3ccccc3c2)c1=O)C(=O)COc1ccccc1 (some centres not stated) | 1.3
6 | CCCCc1ccc(NC(=O)c2cccc3ccccc23)c(=O)n1CC(=O)N[C@@H](CC(=O)O)C(=O)COc1ccccc1 | 16
7 | O=C(O)C[C@H](NC(=O)Cn1cccc(NC(=O)c2cccc3ccccc23)c1=O)C(=O)COc1ccccc1 | 39
8 | CC(C)C(C(=O)N[C@@H](CC(=O)O)C(=O)COc1ccccc1)n1cccc(NC(=O)c2cccc3ccccc23)c1=O (some centres not stated) | 21
9 | COCC(C(=O)N[C@@H](CC(=O)O)C(=O)COc1ccccc1)n1cccc(NC(=O)c2ccc3ccccc3c2)c1=O (some centres not stated) | 7.1
10 | CC(C)[C@H](NC(=O)c1ccc2ccccc2c1)C(=O)N1CCC[C@H]1C(=O)NC(CC(=O)O)C(=O)COc1ccccc1 (some centres not stated) | 0.2
11 | O=C(O)C[C@H](NC(=O)Cn1c(-c2ccccc2)ncc(NC(=O)c2cccc3ccccc23)c1=O)C(=O)COc1ccccc1 | 66
12 | Cc1ccc(NC(=O)c2cccc3ccccc23)c(=O)n1CC(=O)N[C@@H](CC(=O)O)C(=O)COc1ccccc1 | 95
13 | CC(=O)N[C@@H](Cc1ccc(O)cc1)C(=O)N[C@H](C(=O)N[C@@H](C)C(=O)N[C@@H](CC(=O)O)C(=O)COc1ccccc1)C(C)C | 1.1
14 | CCCC(C(=O)N[C@@H](CC(=O)O)C(=O)COc1ccccc1)n1c(C)ccc(NC(=O)c2ccc3ccccc3c2)c1=O (some centres not stated) | 2200
15 | CCCC(C(=O)N[C@@H](CC(=O)O)C(=O)COc1ccccc1)n1c(-c2ccccc2)ccc(NC(=O)c2cccc3ccccc23)c1=O (some centres not stated) | 7200
16 | O=C(O)C[C@H](NC(=O)Cn1c(-c2ccccc2)ccc(NC(=O)c2cccc3ccccc23)c1=O)C(=O)COc1ccccc1 | 25

Row | SMILES | Ki [nM]
17 | CC(C(=O)N[C@@H](CC(=O)O)C(=O)COc1ccccc1)n1cccc(NC(=O)c2cccc3ccccc23)c1=O (some centres not stated) | 7
18 | O=C(O)C[C@H](NC(=O)Cn1cccc(NC(=O)c2ccc3ccccc3c2)c1=O)C(=O)COc1ccccc1 | 45
19 | Cc1ccc(NC(=O)c2ccccc2)c(=O)n1CC(=O)N[C@@H](CC(=O)O)C(=O)COc1ccccc1 | 530
20 | O=C(O)C[C@H](NC(=O)C(c1ccccc1)n1cccc(NC(=O)c2cccc3ccccc23)c1=O)C(=O)COc1ccccc1 (some centres not stated) | 1.8
21 | Cc1ccc(NC(=O)c2ccc3ccccc3c2)c(=O)n1CC(=O)N[C@@H](CC(=O)O)C(=O)COc1ccccc1 | 160
22 | CCCC(C(=O)N[C@@H](CC(=O)O)C(=O)COc1ccccc1)n1cccc(NC(=O)c2cccc3ccccc23)c1=O (some centres not stated) | 1.8
23 | CCCc1ccc(NC(=O)c2cccc3ccccc23)c(=O)n1CC(=O)N[C@@H](CC(=O)O)C(=O)COc1ccccc1 | 68
24 | CC(C(=O)N[C@@H](CC(=O)O)C(=O)COc1ccccc1)n1cccc(NC(=O)c2ccc3ccccc3c2)c1=O (some centres not stated) | 14
25 | O=C(O)C[C@H](NC(=O)C(c1ccccn1)n1cccc(NC(=O)c2ccc3ccccc3c2)c1=O)C(=O)COc1ccccc1 (some centres not stated) | 2
26 | CC(C)[C@H](NC(=O)c1ccc2ccccc2c1)C(=O)N1CCCC[C@H]1C(=O)NC(CC(=O)O)C(=O)COc1ccccc1 (some centres not stated) | 0.15
27 | CCCCCCc1ccc(NC(=O)c2cccc3ccccc23)c(=O)n1CC(=O)N[C@@H](CC(=O)O)C(=O)COc1ccccc1 | 40
28 | O=C(O)C[C@H](NC(=O)Cn1c(Cc2ccccc2)ccc(NC(=O)c2cccc3ccccc23)c1=O)C(=O)COc1ccccc1 | 10
29 | CCCCc1ncc(NC(=O)c2cccc3ccccc23)c(=O)n1CC(=O)N[C@@H](CC(=O)O)C(=O)COc1ccccc1 | 46
30 | CCC(C(=O)N[C@@H](CC(=O)O)C(=O)COc1ccccc1)n1cccc(NC(=O)c2cccc3ccccc23)c1=O (some centres not stated) | 2.2
31 | CCCCC(C(=O)N[C@@H](CC(=O)O)C(=O)COc1ccccc1)n1cccc(NC(=O)c2cccc3ccccc23)c1=O (some centres not stated) | 5.3
32 | CCc1ccc(NC(=O)c2cccc3ccccc23)c(=O)n1CC(=O)N[C@@H](CC(=O)O)C(=O)COc1ccccc1 | 40
